Tests used:
Format in all cases: in vitro ADME
CYP3A4 [1] = biological target: T1, CYP3A4 (Homo sapiens, UniProt P08684); test: Relative CYP contribution to hepatic bioactivation and detoxification, CYP3A4
CYP2C19 [2] = biological target: T2, CYP2C19 (Homo sapiens, UniProt P33261); test: Steady-state kinetics of overall NSAID metabolism
CYP2C9 = CYP2C9 (Homo sapiens, UniProt P11712); test: Relative CYP contribution to hepatic bioactivation and detoxification, CYP2C9
CYP2C8 [3] = biological target: T3, CYP2C8 (Homo sapiens, UniProt P10632); test: Steady-state kinetics of overall NSAID metabolism
T3 sequence (P10632 1-490): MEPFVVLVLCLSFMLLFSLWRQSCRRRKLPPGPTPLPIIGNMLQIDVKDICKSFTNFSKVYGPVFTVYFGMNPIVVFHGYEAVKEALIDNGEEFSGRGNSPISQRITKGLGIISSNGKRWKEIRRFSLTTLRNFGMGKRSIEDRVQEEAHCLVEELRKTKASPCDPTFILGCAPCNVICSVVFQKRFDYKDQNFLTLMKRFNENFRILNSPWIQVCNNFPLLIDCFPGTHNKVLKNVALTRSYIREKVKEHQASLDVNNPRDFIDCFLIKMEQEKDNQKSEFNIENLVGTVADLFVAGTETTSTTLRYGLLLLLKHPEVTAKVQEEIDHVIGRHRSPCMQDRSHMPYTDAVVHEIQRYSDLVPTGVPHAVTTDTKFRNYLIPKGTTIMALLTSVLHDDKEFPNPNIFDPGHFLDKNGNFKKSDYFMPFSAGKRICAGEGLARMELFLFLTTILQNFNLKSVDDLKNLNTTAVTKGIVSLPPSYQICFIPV

CYP2C19 [4] = biological target: T2, CYP2C19; test: Relative CYP contribution to hepatic bioactivation and detoxification, CYP2C19
CYP2C8 [5] = biological target: T3, CYP2C8; test: Relative CYP contribution to hepatic bioactivation and detoxification, CYP2C8
CYP3A4 [6] = biological target: T1, CYP3A4; test: Steady-state kinetics of overall NSAID metabolism

T1 sequence (P08684 whole entry): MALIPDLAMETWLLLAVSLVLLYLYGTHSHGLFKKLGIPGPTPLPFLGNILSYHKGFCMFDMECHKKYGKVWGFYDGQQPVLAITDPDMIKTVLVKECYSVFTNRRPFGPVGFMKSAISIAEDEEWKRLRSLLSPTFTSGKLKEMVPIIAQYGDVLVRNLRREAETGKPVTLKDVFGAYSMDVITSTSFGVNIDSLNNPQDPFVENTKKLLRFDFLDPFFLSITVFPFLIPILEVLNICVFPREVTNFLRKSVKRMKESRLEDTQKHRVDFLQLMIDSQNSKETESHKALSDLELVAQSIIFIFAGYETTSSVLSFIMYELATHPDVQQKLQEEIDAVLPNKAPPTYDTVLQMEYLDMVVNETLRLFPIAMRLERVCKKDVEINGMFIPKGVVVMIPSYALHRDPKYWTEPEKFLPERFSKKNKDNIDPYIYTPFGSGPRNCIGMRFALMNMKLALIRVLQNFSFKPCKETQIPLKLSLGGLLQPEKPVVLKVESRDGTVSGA
T2 sequence (P33261 whole entry): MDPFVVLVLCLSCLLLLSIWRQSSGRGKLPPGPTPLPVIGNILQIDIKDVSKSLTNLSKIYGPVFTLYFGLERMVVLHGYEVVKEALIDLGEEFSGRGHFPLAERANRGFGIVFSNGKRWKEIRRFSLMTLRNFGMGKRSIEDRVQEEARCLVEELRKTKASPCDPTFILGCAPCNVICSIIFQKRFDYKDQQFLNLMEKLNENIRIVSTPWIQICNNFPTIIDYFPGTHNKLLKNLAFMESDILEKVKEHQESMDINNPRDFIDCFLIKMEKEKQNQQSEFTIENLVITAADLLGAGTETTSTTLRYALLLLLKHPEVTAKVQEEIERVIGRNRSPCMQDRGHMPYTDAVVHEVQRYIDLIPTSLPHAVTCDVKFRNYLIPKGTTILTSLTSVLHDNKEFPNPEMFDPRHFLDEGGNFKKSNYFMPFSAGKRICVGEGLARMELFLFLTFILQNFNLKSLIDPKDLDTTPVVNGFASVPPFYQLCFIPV
CYP2C9, sequence (P11712 whole entry): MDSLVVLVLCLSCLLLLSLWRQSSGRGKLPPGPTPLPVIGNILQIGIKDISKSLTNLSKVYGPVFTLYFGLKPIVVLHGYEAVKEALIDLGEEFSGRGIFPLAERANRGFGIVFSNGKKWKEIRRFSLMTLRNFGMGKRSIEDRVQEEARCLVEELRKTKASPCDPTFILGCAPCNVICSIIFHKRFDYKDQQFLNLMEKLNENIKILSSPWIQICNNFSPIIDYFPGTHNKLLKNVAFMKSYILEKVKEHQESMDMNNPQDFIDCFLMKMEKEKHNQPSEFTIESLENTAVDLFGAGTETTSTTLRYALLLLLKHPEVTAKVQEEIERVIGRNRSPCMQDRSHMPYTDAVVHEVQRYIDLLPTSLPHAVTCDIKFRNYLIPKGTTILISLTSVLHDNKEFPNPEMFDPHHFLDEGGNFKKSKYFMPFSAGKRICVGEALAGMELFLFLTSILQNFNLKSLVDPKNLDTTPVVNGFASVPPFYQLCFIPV

SMILES: O=C(O)Cc1ccccc1Nc1c(Cl)cccc1Cl [DIC, diclofenac]
- Bioactivation Percent (CYP3A4 [1]; CYP3A4 contribution to total CLbioact of the NSAID): 1.1%
- Detoxification Percent (CYP3A4 [1]; CYP3A4 contribution to total CLdetox of the NSAID): 75.9%
- Km at 60 min (CYP2C19 [2]; human, recombinant CYP2C19 Supersomes, pH 7.4): 70.5 µM
- Vmax (CYP2C19 [2]; overall metabolism (depletion) by CYP2C19, 95% CI in parentheses): 1940 (1840–2040) pmol/min/nmol protein
- Bioactivation Percent (CYP2C9; CYP2C9 contribution to total CLbioact of the NSAID): 97.9%
- Detoxification Percent (CYP2C9; CYP2C9 contribution to total CLdetox of the NSAID): 12.0%
- Km at 60 min (CYP2C8 [3]; human, recombinant CYP2C8 Supersomes, pH 7.4): 83 µM
- Vmax (CYP2C8 [3]; overall metabolism (depletion) by CYP2C8, 95% CI in parentheses): 1240 (1170–1320) pmol/min/nmol protein
- Bioactivation Percent (CYP2C19 [4]; CYP2C19 contribution to total CLbioact of the NSAID): 1.0%
- Detoxification Percent (CYP2C19 [4]; CYP2C19 contribution to total CLdetox of the NSAID): 5.5%
- Bioactivation Percent (CYP2C8 [5]; CYP2C8 contribution to total CLbioact of the NSAID): 0%
- Detoxification Percent (CYP2C8 [5]; CYP2C8 contribution to total CLdetox of the NSAID): 6.5%
- Km at 60 min (CYP3A4 [6]; human, recombinant CYP3A4 Supersomes, pH 7.4): 130 µM
- Vmax (CYP3A4 [6]; overall metabolism (depletion) by CYP3A4, 95% CI in parentheses): 5480 (5090–5930) pmol/min/nmol protein
